Results from PMC6949936, “Probing the Interactions of Sulfur-Containing Histidine Compounds with Human Gamma-Glutamyl Transpeptidase” (Marine Drugs, 2019).

Biological target: T1, Gamma-glutamyl transpeptidase (eqGGT) (Equus caballus, UniProt F7DXY0)
T1 construct: GGT from equine kidney (Sigma-Aldrich)
Experiment: time-dependent irreversible inactivation, pre-incubation with […] DON then dilution
Assay type: biochemical

T1 sequence (F7DXY0 75-452): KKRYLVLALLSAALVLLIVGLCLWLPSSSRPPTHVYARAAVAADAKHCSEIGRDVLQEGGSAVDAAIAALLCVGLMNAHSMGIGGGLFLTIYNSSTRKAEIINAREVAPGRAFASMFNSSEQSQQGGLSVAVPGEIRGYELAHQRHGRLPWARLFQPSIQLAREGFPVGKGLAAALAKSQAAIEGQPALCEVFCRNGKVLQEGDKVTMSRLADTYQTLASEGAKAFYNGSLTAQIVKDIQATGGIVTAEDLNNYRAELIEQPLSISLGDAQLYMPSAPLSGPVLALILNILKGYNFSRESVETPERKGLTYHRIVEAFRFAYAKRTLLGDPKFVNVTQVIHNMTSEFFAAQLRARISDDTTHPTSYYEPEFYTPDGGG
T1 sequence (F7DXY0 453-641): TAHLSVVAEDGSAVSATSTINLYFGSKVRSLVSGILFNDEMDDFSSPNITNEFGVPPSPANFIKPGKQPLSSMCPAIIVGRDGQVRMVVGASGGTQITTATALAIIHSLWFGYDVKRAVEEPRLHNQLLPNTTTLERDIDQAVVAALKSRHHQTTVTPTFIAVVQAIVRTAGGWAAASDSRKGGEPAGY

Compound: [N-]=[N+]=CC(=O)CC[C@H](N)C(=O)O [DON, 6-diazo-5-oxo-L-norleucine]
- time-dependent irreversible inactivation, pre-incubation with 400 μM DON then di: DON acts as an irreversible inhibitor, and then as an inactivator of GGT, because, after dilution, the activity was not restored
